This is an account of results in patent US20240139185A1, “COMPOUNDS THAT PARTICIPATE IN COOPERATIVE BINDING AND USES THEREOF” (Revolution Medicines, Inc., priority 2018, published 2024).

One test deals with cyclophilin A (CYPA) (Homo sapiens, UniProt P62937). Briefly: CYPA-compound binary complex formation by SPR. The settings on record: read-out: CYPA Binding Affinity. How it is done:
In order to determine the affinity of compounds of the invention for cyclophilin A (CYPA), we employed surface plasmon resonance binding analysis using the following reagents, instruments and protocol as supplied by the instrument manufacturer.
Reagents and Instrument • 1. Instrument: Biacore S200 (GE Healthcare Life Sciences) • 2. Running buffer: 1×HBS-P+ (1×HBS supplemented with 0.05% Tween20), pH7.4, and 2% DMSO. • 3. Ligand: CypA-Avi • 4. Analyte: Serial dilution of WDB compounds from 50 μM to 0 μM, 2-fold dilution, 10 points (10 mM stock concentration). • 5. Sensor kit: Biotin CAPture Kit (BR28-9202-34, GE Healthcare Life Sciences) • 6. Regeneration buffer: 1 volume of 1 M NaOH and 3 volumes of 8 M guanidine hydrochloride (supplied with CAPture Kit, BR28-9202-34, GE Healthcare Life Sciences)
Experimental Procedure • 1. Capture of CAPreagent: 2 μl/min for 60 seconds. • 2. Immobilization of ligand CypA: Use Fc1 as the reference cell; immobilize CypA at 4 μg/ml using 5 μl/min flowrate on Fc2 (60s), Fc3 (80s) and Fc4 (80s), respectively. • 3. Binding of analytes: Inject WDB compound dilutions sequentially at 50 μl/min for association of 60 seconds. And then let it dissociates in buffer at 50 μl/min for 60 seconds. • 4. Regeneration: 2 injections of regeneration buffer at 30 μl/min for 60 seconds to regenerate the chip surface. • 5. Solvent correction: Run solvent correction at beginning and the end of the run. If run more than 6 compounds, add additional solvent correction every 6 compounds. • 6. Data fitting with built-in Biacore Evaluation Software: Steady-state fitting.
A general note: Surface plasmon resonance follows binding to a sensor surface in real time, without labels.

Another test relates to pERK in H358 cells. The experiment in a line: pERK inhibition in H358 cells. The test is classed as cell-based, human. The settings on record: 4 hours treatment, read-out: Cellular pERK inhibition. How it is done: H358 cells (5500 cells) derived from a human lung cancer were plated in a 96 well plate in media (100 uL, RPMI with 10% FBS). After 24 hours, cells were treated for 4 hours with compound or DMSO. Cells were washed twice with room temperature TBS (200 uL) and fixed for 20 minutes with 4% paraformaldehyde diluted with TBS (150 uL). Cells were washed four times for five minutes with 0.1% TritonX/TBS (150 uL) to permeabilize the membrane. Cells were incubated with TBS blocking buffer (100 uL) at room temperature for 60 minutes. Primary antibody (Phospho-p44/42 MAPK (Erk1/2) (Thr202/Tyr204) (D13.14.4E) XP® Rabbit mAb #4370, Cell Signaling Technology; 1:200) was added, and the cells were incubated overnight at 4 C. The cells were washed four times for five minutes with 0.1% Tween 20/TBS (150 uL). Secondary antibody (IRDye® 800CW Goat-Anti-Rabbit IgG, Li-Cor Biosciences; 1:1000) and DRAQ5™ (Invitrogen; 1:2000) was added, and the cells were incubated for 1 hour at room temperature. The cells were washed four times for five minutes with 0.1% Tween 20/TBS (150 uL) and scanned using the LICOR (700 and 800 nm).

The target in test [1] is T1, BRAF-GTP-KRAS-G12C complex (Homo sapiens, UniProt P01116+P62937, G12C).
T1 construct: 50 nM of His6-KRas G12C-GTP (1-169); 500 nM of tagless CypA (1-165)
The experiment in a line: KRAS-BRAF complex disruption through competition with CYPA-compound by TR-FRET. The following applies: biochemical BRAF-KRAS G12C-GTP disruption assay EC50, with CYPA. The method, then:
In this example, TR-FRET was used to measure the compound-facilitated disruption of a KRAS-BRAF complex. A mixture of tagless Cyclophilin A, His6-KRAS G12C-GMP-PNP, and GST-BRAF RAS binding domain was added to a 384-well assay plate containing compounds of the invention and incubated for 3 hours. A mixture of Anti-His Eu-W1024 and anti-GST allophycocyanin was then added and the reaction was incubated for an additional 1.5 hours. TR-FRET signal was read on an EnVision microplate reader (Perkin Elmer, Ex 320 nm, Em 665/615 nm). Compounds that facilitate disruption of a KRAS_BRAF complex were identified as those eliciting a decrease in the TR-FRET ratio relative to DMSO control wells. To determine the presenter-dependence of the compound-mediated KRAS-BRAF complex disruption, Cyclophilin A was left out of the initial incubation (see Table 5). To determine G12C specificity of the compound-mediated KRAS-BRAF complex disruption, wild-type KRAS was used instead of G12C KRAS (see Table 5).
Reagents and Instrument • Tagless CYPA; 519 μM in PBS buffer, pH 7.4 • GST BRAF; 110 μM in PBS buffer, pH 7.4 • His6-KRASG12C-GMP-PNP; 50 μM in PBS buffer, pH 7.4 • His6-KRASWT-GMP-PNP; 40 μM in PBS buffer, pH 7.4 • Anti-His Eu-W1024 (LANCE® Eu-W1024; Perkin Elmer) • Anti-GST allophycocyanin (Anti-GST IgG conjugated to SureLight®-Allophycocyanin; Perkin Elmer; Product Number AD0059G) • Test compounds, 10 mM in 100% DMSO • EnVision (Perkin Elmer) • Combi MultiDrop liquid dispenser with 8-channel small volume cassette • 384-well ProxiPlate (black)
Experimental Protocol • 1. Use Mosquito to dispense 100 nL/well of compounds (varying concentration in […]) into 384-well black ProxiPlate to make assay-ready-plate (ARP). • 2. Make assay buffer containing 25 mM Hepes pH 7.3, 100 mM NaCl, 5 mM MgCl2, 0.05% BSA, and 0.002% Tween-20. • 3. Make PRE-MIX A: delivers final concentrations of 50 nM of His6-KRas G12C-GTP (1-169) and 500 nM of tagless CypA (1-165) in assay buffer. • a. For presenter dependence experiments, omit addition of tagless CypA • b. For G12C/wt specificity experiments, substitute His6-KRas WT-GTP (1-169) for His6-KRas G12C-GTP (1-169) • 4. Use MultiDrop Combi to dispense PRE-MIX A into ARP, 7 μl/well. Incubate 3 hr at room temperature. • 5. Make PRE-MIX B: delivers final concentrations of 10 nM of anti-His Eu-W1024 and 50 nM of anti-GST APC. • 6. Use MultiDrop Combi to dispense PRE-MIX B into ARP, 3 μl/well. Shake briefly on Combi and incubate 1.5 hr at room temperature. • 7. Read on EnVision (Ex: 320 nm; Em1: 615 nm; Em2: 665 nm). • 8. Data is processed using Dotmatics. Curves are fit using a 4-parameter non-linear fit to determine the EC50 value for formation of the ternary complex.
A general note: Time-resolved FRET reads energy transfer from a long-lived donor to a nearby acceptor.

As to `CC1COC(=O)[C@@H]2CCCN(N2)C(=O)[C@@H](NC(=O)[C@H](C(C)C)N(C)C(=O)C2CN(C(=O)CCl)C2)Cc2cc(O)cc(c2)-c2ccc3c(c2)c(cn3CC2COC2)C1` (single isomer, unassigned) [Compound 227], at cyclophilin A (CYPA), the Kd was in the range of 5 to 15 µM. Also, the IC50 with pERK in H358 cells was more than 10 µM.
As to `CC1COC(=O)[C@@H]2CCCN(N2)C(=O)[C@@H](NC(=O)[C@H](C(C)C)N(C)C(=O)C2CN(C(=O)CCl)C2)Cc2cc(O)cc(c2)-c2ccc3c(c2)c(cn3CC2COC2)C1` (single isomer, unassigned) [Compound 228], on cyclophilin A (CYPA), the Kd was not above 5 µM. Further, the IC50 with pERK in H358 cells was in the range of 1 to 10 µM.
As for `CC1COC(=O)C2CCCN(N2)C(=O)C(NC(=O)C(C(C)C)N(C)C(=O)C2CN(C(=O)CCl)C2)Cc2cc(O)cc(c2)-c2ccc3c(-c4ccccc4C#N)cn(c3c2)C1` [Compound 5, 1-(2-chloroacetyl)-N-((2S)-1-(((6^3S,4S,10S)-1^3-(2-cyanophenyl)-2^5-hydroxy-10-methyl-5,7-dioxo-6^1,6^2,6^3,6^4,6^5,6^6-hexahydro-1^1H-8-oxa-1(6,1)-indola-6(1,3)-pyridazina-2(1,3)-benzenacycloundecaphane-4-yl)amino)-3-methyl-1-oxobutan-2-yl)-N-methylazetidine-3-carboxamide], the Kd on cyclophilin A (CYPA) was not above 5 µM. The IC50 in the test with pERK in H358 cells is not above 1 µM.
Turning to `CC(C)[C@@H](C(=O)N[C@H]1Cc2cc(O)cc(c2)-c2ccc3c(-c4cccnc4)cn(c3c2)C[C@H](C)COC(=O)[C@@H]2CCCN(N2)C1=O)N(C)C(=O)C1CN(C(=O)CCl)C1` [Compound 51], in test [1], the concentration for a half-maximal effect (EC50) was not above 0.5 µM. For the same molecule, the IC50 in the test on pERK in H358 cells fell in the range of 1 to 10 µM.
The matching figures for `CC(C)[C@@H](C(=O)N[C@H]1Cc2cc(O)cc(c2)-c2ccc3c(Cc4cccnc4)cn(c3c2)C[C@H](C)COC(=O)[C@@H]2CCCN(N2)C1=O)N(C)C(=O)C1CN(C(=O)CCl)C1` [Compound 70]: not above 0.5 µM and more than 10 µM.
Turning to `CC1=C(C)C(=O)N(CC(=O)N(C)[C@H](C(=O)N[C@H]2Cc3cc(O)cc(c3)-c3ccc4nc(C)n(c4c3)CC(C)(C)COC(=O)[C@@H]3CCCN(N3)C2=O)C(C)C)C1=O` [Compound 171], the Kd on cyclophilin A (CYPA) was in the range of 5 to 15 µM. The EC50 in test [1] lay in the range of 0.5 to 5 µM.
For `C=CC(=O)N1CCN([C@H](C(=O)N[C@H]2Cc3cc(O)cc(c3)-c3ccc4c(=O)n(C)n(c4c3)CCCOC(=O)[C@@H]3CCCN(N3)C2=O)C(C)C)C1=O` [Compound 174], in that order: not above 5 µM and more than 5 µM.
Regarding `C=CC(=O)N1CCN([C@H](C(=O)N[C@H]2Cc3cc(O)cc(c3)-c3ccc4c(C5CCOCC5)cn(c4c3)CCCOC(=O)[C@@H]3CCCN(N3)C2=O)C(C)C)C1=O` [Compound 229, (2S)-2-(3-acryloyl-2-oxoimidazolidin-1-yl)-N-((6^3S,4S)-2^5-hydroxy-5,7-dioxo-1^3-(tetrahydro-2H-pyran-4-yl)-6^1,6^2,6^3,6^4,6^5,6^6-hexahydro-1^1H-8-oxa-1(6,1)-indola-6(1,3)-pyridazina-2(1,3)-benzenacycloundecaphane-4-yl)-3-methylbutanamide], the Kd on cyclophilin A (CYPA) was not above 5 µM. The IC50 in the test with pERK in H358 cells was more than 10 µM.
In turn, `CC(C)[C@@H](C(=O)N[C@H]1Cc2cc(N)cc(c2)-c2ccc3c(C#N)cn(c3c2)CC(C)(C)COC(=O)[C@@H]2CCCN(N2)C1=O)N(C)C(=O)C1CN(C(=O)CCl)C1` [Compound 230, N-((2S)-1-(((6^3S,4S)-2^5-amino-1^3-cyano-10,10-dimethyl-5,7-dioxo-6^1,6^2,6^3,6^4,6^5,6^6-hexahydro-1^1H-8-oxa-1(6,1)-indola-6(1,3)-pyridazina-2(1,3)-benzenacycloundecaphane-4-yl)amino)-3-methyl-1-oxobutan-2-yl)-1-(2-chloroacetyl)-N-methylazetidine-3-carboxamide] displayed an EC50 in test [1] of 0.5 to 5 µM. Moreover, the IC50 with pERK in H358 cells is more than 10 µM.
For `C=CC(=O)N1CC(C(=O)N(C)[C@H](C(=O)N[C@H]2Cc3cc(O)cc(c3)-c3ccc4c(C5CCN(C)CC5)nn(c4c3)CC(C)(C)COC(=O)[C@@H]3CCCN(N3)C2=O)C(C)C)C1` [Compound 232, 1-acryloyl-N-((2S)-1-(((6^3S,4S)-2^5-hydroxy-10,10-dimethyl-1^3-(1-methylpiperidin-4-yl)-5,7-dioxo-6^1,6^2,6^3,6^4,6^5,6^6-hexahydro-1^1H-8-oxa-1(6,1)-indazola-6(1,3)-pyridazina-2(1,3)-benzenacycloundecaphane-4-yl)amino)-3-methyl-1-oxobutan-2-yl)-N-methylazetidine-3-carboxamide], in that order: 0.5 to 5 µM and more than 10 µM.
The matching figures for `C#Cc1nn2c3cc(ccc13)-c1cc(O)cc(c1)C[C@H](NC(=O)[C@H](C(C)C)N(C)C(=O)C1CN(C(=O)CCl)C1)C(=O)N1CCC[C@H](N1)C(=O)OCC(C)(C)C2` [Compound 233, 1-(2-chloroacetyl)-N-((2S)-1-(((6^3S,4S)-1^3-ethynyl-2^5-hydroxy-10,10-dimethyl-5,7-dioxo-6^1,6^2,6^3,6^4,6^5,6^6-hexahydro-1^1H-8-oxa-1(6,1)-indazola-6(1,3)-pyridazina-2(1,3)-benzenacycloundecaphane-4-yl)amino)-3-methyl-1-oxobutan-2-yl)-N-methylazetidine-3-carboxamide]: not above 0.5 µM and more than 10 µM.
The matching figures for `C=CC(=O)N1CCC(C(=O)N(C)C(C(=O)NC2Cc3cc(O)cc(c3)-c3ccc4c(c3)c(cn4C(C)(C)C#N)CC(C)(C)COC(=O)C3CCCN(N3)C2=O)C2CCCCC2)C1` (stereo not drawn) [Compound 396]: more than 5 µM and 1 to 10 µM.

Usually EC50 stands for the concentration needed to bring the measured effect to its halfway point. A high value points to a need for much substance.
